Experimental data taken from ChEMBL document CHEMBL5150000, “Insights on Dengue and Zika NS5 RNA-dependent RNA polymerase (RdRp) inhibitors” (Eur J Med Chem, 2021).

How the values were obtained:
dengue virus type 2 [1] = assay: Antiviral activity against DENV-2 RNA-dependent RNA polymerase infected in human Huh-7 cells assessed as reduction in viral replication by RT-PCR analysis; format: functional, organism-based
Zika virus [2] = assay: Antiviral activity against Zika virus infected in African green monkey Vero cells assessed as reduction in viral replication incubated for 24 hrs; format: functional, organism-based
dengue virus type 3 [3] = assay: Antiviral activity against DENV-3 infected in African green monkey Vero E6 cells; format: functional, organism-based; settings: Vero C1008
dengue virus type 4 [4] = assay: Antiviral activity against DENV-4 infected in African green monkey Vero E6 cells; format: functional, organism-based; settings: Vero C1008
Zika virus [5] = assay: Antiviral activity against Zika virus infected in African green monkey Vero E6 cells; format: functional, organism-based; settings: Vero C1008
dengue virus type 1 [6] = assay: Antiviral activity against DENV-1 infected in African green monkey Vero E6 cells; format: functional, organism-based; settings: Vero C1008
Vero = assay: Inhibition of DENV-2 RNA-dependent RNA polymerase in African green monkey Vero cells measured for 24 to 72 hrs relative to control; format: cell-based; settings: dengue virus type 2, time 24-72 hrs, dose or concentration not given here
[7] = Cytotoxicity against African green monkey Vero cells; format: toxicity, cell-based; settings: chlorocebus sabaeus
Dengue virus [8] = assay: Antiviral activity against DENV NS5/RNA-dependent RNA polymerase; format: functional, organism-based
Nonstructural protein 5 [9] = biological target: T1, Nonstructural protein 5 (Dengue virus, UniProt V5TFZ2); assay: Inhibition of full length His-tagged DENV-2 NS5 incubated for 1 hr; set-up: species or system dengue virus type 2
Nonstructural protein 5 [10] = biological target: T1, Nonstructural protein 5; assay: Binding affinity to full length His-tagged DENV-2 NS5 assessed as dissociation constant; set-up: species or system dengue virus type 2
[11] = biological target: Nonstructural protein 5 (Dengue virus) (UniProt V5TFZ2); assay: Binding affinity to DENV-3 NS5 assessed as gibbs free energy change; settings: dengue virus type 3
[12] = Inhibition od DENV-2 RNA-dependent RNA polymerase; set-up: species or system dengue virus type 2
Nonstructural protein 5 [13] = biological target: T1, Nonstructural protein 5; assay: Inhibition of DENV-4 NS5; set-up: species or system dengue virus type 4
Nonstructural protein 5 [14] = biological target: T1, Nonstructural protein 5; assay: Inhibition of DENV-2 NS5; set-up: species or system dengue virus type 2
[15] = biological target: T2, DNA polymerase alpha catalytic subunit (Homo sapiens) (UniProt P09884); assay: Inhibition of human DNA polymerase alpha at 100 uM incubated for 60 mins by Microbeta counter analysis
T2 sequence (whole entry): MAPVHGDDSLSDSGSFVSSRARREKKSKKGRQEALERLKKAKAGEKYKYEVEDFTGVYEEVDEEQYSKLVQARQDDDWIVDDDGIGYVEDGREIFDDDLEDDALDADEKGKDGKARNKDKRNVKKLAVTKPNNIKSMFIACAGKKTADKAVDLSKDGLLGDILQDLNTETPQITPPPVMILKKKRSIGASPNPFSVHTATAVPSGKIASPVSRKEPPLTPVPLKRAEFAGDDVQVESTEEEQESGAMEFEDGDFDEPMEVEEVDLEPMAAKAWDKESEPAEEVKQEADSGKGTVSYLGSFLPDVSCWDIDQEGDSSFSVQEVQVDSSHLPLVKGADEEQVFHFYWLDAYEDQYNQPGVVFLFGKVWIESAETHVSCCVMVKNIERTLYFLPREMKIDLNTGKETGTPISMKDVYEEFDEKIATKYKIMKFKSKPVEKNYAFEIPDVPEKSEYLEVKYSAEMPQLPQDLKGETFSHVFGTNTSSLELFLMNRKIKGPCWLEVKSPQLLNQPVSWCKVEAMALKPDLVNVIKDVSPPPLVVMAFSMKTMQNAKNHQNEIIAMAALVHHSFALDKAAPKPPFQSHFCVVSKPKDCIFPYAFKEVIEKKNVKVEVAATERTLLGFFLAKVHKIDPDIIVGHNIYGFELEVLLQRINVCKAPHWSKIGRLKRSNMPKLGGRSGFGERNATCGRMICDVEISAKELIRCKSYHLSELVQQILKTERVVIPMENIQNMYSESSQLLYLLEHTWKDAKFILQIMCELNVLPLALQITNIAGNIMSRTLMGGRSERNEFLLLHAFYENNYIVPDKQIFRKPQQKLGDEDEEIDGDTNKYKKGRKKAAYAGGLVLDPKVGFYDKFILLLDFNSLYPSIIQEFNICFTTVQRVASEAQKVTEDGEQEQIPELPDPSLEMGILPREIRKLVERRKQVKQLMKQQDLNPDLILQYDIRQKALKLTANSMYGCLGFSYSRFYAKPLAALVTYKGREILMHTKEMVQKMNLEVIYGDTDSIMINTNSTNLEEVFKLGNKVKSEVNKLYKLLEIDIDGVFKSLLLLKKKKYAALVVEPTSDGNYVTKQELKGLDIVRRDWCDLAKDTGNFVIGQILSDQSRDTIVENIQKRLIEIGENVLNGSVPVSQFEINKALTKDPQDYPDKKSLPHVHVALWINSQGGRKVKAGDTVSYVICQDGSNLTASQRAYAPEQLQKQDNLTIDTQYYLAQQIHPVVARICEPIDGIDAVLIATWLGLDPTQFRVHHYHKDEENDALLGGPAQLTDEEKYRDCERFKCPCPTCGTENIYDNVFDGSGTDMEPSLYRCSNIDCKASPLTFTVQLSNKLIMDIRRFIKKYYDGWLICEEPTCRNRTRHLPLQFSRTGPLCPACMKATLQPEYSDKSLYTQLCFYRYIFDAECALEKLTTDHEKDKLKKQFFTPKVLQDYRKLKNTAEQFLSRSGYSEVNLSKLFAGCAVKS

Hepacivirus hominis = assay: Inhibition of C-terminal his6-tagged HCV NS5/RNA-dependent RNA polymerase expressed in Escherichia coli at 100 uM incubated for 2 hrs by Microbeta counter analysis
NS5 [16] = biological target: T3, NS5 (Zika virus, UniProt A0A143MHK7); assay: Inhibition of Zika virus RNA-dependent RNA polymerase activity
dengue virus type 4 [17] = assay: Antiviral activity against DENV-4 RNA-dependent RNA polymerase infected in African green monkey Vero cells assessed as reduction in viral replication incubated for 2 days by qRT-PCR analysis; format: functional, organism-based; settings: 48 h
dengue virus type 2 [18] = assay: Antiviral activity against DENV-2 RNA-dependent RNA polymerase infected in African green monkey Vero cells assessed as reduction in viral replication incubated for 2 days by qRT-PCR analysis; format: functional, organism-based; settings: 48 h
dengue virus type 3 [19] = assay: Antiviral activity against DENV-3 RNA-dependent RNA polymerase infected in African green monkey Vero cells assessed as reduction in viral replication incubated for 2 days by qRT-PCR analysis; format: functional, organism-based; settings: 48 h
dengue virus type 1 [20] = assay: Antiviral activity against DENV-1 RNA-dependent RNA polymerase infected in African green monkey Vero cells assessed as reduction in viral replication incubated for 2 days by qRT-PCR analysis; format: functional, organism-based; settings: 48 h
Nonstructural protein 5 [21] = biological target: T1, Nonstructural protein 5; assay: Inhibition of DENV NS5/RNA-dependent RNA polymerase
Dengue virus [22] = assay: Inhibition of DENV RNA-dependent RNA polymerase relative to control; settings: concentration not given here
[23] = Inhibition of DENV RNA-dependent RNA polymerase activity; set-up: species or system Dengue virus
NS5 (Zika virus) = NS5 (Zika virus) (UniProt A0A143MHK7); assay: Inhibition of Zika virus RNA-dependent RNA polymerase relative to control; settings: concentration not given here
NS5 [24] = biological target: T3, NS5; assay: Inhibition of Zika virus wild type RNA-dependent RNA polymerase using ATP as substrate
Zika virus [25] = assay: Antiviral activity against Zika virus SMGC-1 infected in human Huh-7 cells assessed as reduction in viral titer; format: functional, organism-based; settings: SMGC-1, Huh-7
[26] = Cytotoxicity against African green monkey Vero cells incubated for 4 hrs by Cell-titer glo assay; format: toxicity, cell-based; settings: chlorocebus sabaeus
[27] = Selectivity index, ratio of CC50 for cytotoxicity against African green monkey Vero cells to EC50 for antiviral activity against Zika virus RNA-dependent RNA polymerase infected in African green monkey Vero cells; format: toxicity, cell-based; settings: read-out: Ratio CC50/EC50
Zika virus [28] = assay: Antiviral activity against Zika virus RNA-dependent RNA polymerase infected in African green monkey Vero cells; format: functional, organism-based
[29] = Cytotoxicity against hamster BHK-21 cells; format: toxicity, cell-based, Mesocricetus auratus
[30] = Inhibition of DENV RNA-dependent RNA polymerase in hamster BHK-21 cells; format: cell-based, Dengue virus

T3 sequence (A0A143MHK7 whole entry): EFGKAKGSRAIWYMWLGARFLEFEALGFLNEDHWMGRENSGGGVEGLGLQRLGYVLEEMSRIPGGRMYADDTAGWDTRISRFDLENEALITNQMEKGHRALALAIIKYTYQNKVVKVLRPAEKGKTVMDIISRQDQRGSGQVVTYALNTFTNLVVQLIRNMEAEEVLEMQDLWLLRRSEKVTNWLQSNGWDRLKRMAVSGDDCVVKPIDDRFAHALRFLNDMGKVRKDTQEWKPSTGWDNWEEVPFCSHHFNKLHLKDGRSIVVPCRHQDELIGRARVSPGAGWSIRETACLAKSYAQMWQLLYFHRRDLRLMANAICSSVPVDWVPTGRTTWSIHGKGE
Sequence of NS5 (Zika virus) (A0A143MHK7 as listed by the source): as the sequence (A0A143MHK7 whole entry) above

O=C(N[C@@H](Cc1cccc(O)c1)C(=O)O)c1cc(-c2ccccc2)c(=O)n2c1sc1ccc(C3CCCCC3)cc12
EC50 (dengue virus type 2 [1]): 2900 nM
EC50 (Zika virus [2]): 800 nM

COc1ccc(-c2cc(C(=O)N[C@@H](Cc3ccc(O)cc3)C(=O)O)c3sc4ccc(OC5CCCCC5)cc4n3c2=O)cc1F
EC50 (dengue virus type 3 [3]): 3.5 µM
EC50 (dengue virus type 4 [4]): 2900 nM
EC50 (Zika virus [5]): 10.7 µM
EC50 (dengue virus type 1 [6]): 5.1 µM

CC(C)[C@H](N)C(=O)OCC(CO)OCn1cnc2c(=O)[nH]c(N)nc21 (stereo not given in full)
inhibition (Vero): 10%

Cc1cn([C@H]2C=C[C@@H](CO)O2)c(=O)[nH]c1=O
inhibition (Vero): 11%

O=C(O)/C=C/C#CCCCCCCCC(=O)O
CC50 [7]: > 420 µM
IC50 (Dengue virus [8]): 2500 nM

O=C1N/C(=N\c2nnc(-c3ccccc3Cl)s2)S/C1=C\c1cccc(F)c1
IC50 (Nonstructural protein 5 [9]): 2100 nM
Kd (Nonstructural protein 5 [10]): 9.1 µM

O=C(Nc1nc(-c2cccc3ccccc23)n[nH]1)C1=CNc2ccccc2N1
deltaG [11]: -4.89 kcal/mol

O=C(O)c1ccccc1NS(=O)(=O)c1cccc(-c2cnn(Cc3ccccc3)c2)c1
IC50 [12]: 700 nM
IC50 (Nonstructural protein 5 [13]): 5.2 µM
IC50 (Nonstructural protein 5 [14]): 4.6 µM
inhibition [15]: 32%
inhibition (Hepacivirus hominis): 23%

C[C@@]1(O)[C@H](O)[C@@H](COP(=O)(O)OP(=O)(O)OP(=O)(O)O)O[C@H]1n1ccc2c(N)ncnc21
IC50 (NS5 [16]): 8.92 µM

C[C@@]1(O)[C@H](O)[C@@H](CO)O[C@H]1n1cc(F)c2c(N)ncnc21
EC50 (dengue virus type 4 [17]): 870 nM
EC50 (dengue virus type 2 [18]): 460 nM
EC50 (dengue virus type 3 [19]): 850 nM
EC50 (dengue virus type 1 [20]): 960 nM

O=C(NCc1ccc(O)cc1)c1cc(-c2ccccc2)c(=O)n2c1sc1ccc(C3CCCCC3)cc12
EC50 (dengue virus type 2 [1]): 1800 nM
EC50 (Zika virus [2]): 1000 nM

C[C@@]1(F)[C@H](O)[C@@H](COP(=O)(O)OP(=O)(O)OP(=O)(O)O)O[C@H]1n1ccc(N)nc1=O [PSI-6130-TP]
inhibition (Dengue virus [22]): 85%
IC50 [23]: 1600 nM
inhibition (NS5 (Zika virus)): 67.4%

CCNC(=O)Cn1cnc(NC(=O)c2cc(-c3ccc(C)cc3)nc3onc(C)c23)n1
IC50 (NS5 [24]): 1130 nM
EC50 (Zika virus [25]): 7.43 µM
deltaG [11]: -10.5 kcal/mol

O=C(NC(=S)Nc1ccc(N2CCN(C(=O)c3cccs3)CC2)cc1)c1sc2ccccc2c1Cl
CC50 at 4 h [26]: 19.4 µM
selectivity ratio [27]: 206
EC50 (Zika virus [28]): 94 nM

CCCC/C=C/C#CC#CCCCCCCCC(=O)O [EXOCARPIC ACID]
CC50 [7]: 23 µM
IC50 (Dengue virus [8]): 2200 nM

COc1cc(O)c2c(=O)cc(-c3ccc(O)cc3)oc2c1-c1cc(-c2cc(=O)c3c(O)cc(O)cc3o2)ccc1O [SOTETSUFLAVONE]
IC50 (Nonstructural protein 5 [21]): 160 nM

C#Cc1c(C#N)ncn1[C@@H]1O[C@H](CO)[C@@H](O)[C@H]1O
CC50 [29]: 3.99 µM
IC50 [30]: 550 nM
